Each compound was assayed against GyrB ATPase activity (E. coli GyrA, E. coli GyrB) (Escherichia coli, UniProt P0AES6) (assay: GyrB ATPase inhibition activity assay (ammonium molybdate/malachite green phosphate detection)). Details: figure quoted may be an average of two or more results.
Assay type: biochemical
Procedure: Compounds may be tested for inhibition of GyrB ATPase activity using an ammonium molybdate/malachite green-based phosphate detection assay (Lanzetta, P. A., L. J. Alvarez, P. S. Reinach, and O. A. Candia, 1979, 100: 95-97). Assays can be performed in multiwell plates in 100 μl reactions containing: 50 mM HEPES buffer pH 7.5, 75 mM ammonium acetate, 5.5 mM magnesium chloride, 0.5 mM ethylenediaminetetraacetic acid, 5% glycerol, 1 mM 1,4-Dithio-DL-threitol, 200 nM bovine serum albumin, 5 μg/ml sheared salmon sperm DNA, 2.5 nM E. coli GyrA, 2.5 nM E. coli GyrB, 250 μM ATP, and compound in dimethylsulfoxide. Reactions can be quenched with 150 μl of ammonium molybdate/malachite green detection reagent containing 1.2 mM malachite green hydrochloride, 8.5 mM ammonium molybdate tetrahydrate, and 1 M hydrochloric acid.
Compounds of the Examples could be expected to have IC50 values of <200 μg/ml in one or both assays described herein above. For Example the following results were obtained in a GyrB ATPase inhibition activity assay substantially similar to the above wherein the figure quoted may be an average of two or more results

Structure (SMILES)	IC50 [nM]
COC(=O)c1cnc(N2CC[C@H](NC(=O)c3[nH]c(C)c(Cl)c3Cl)[C@H](n3cnc(Cl)n3)C2)s1 (racemic) [Example 40, cis(±)Methyl 2-(3-(3-chloro-1H-1,2,4-triazol-1-yl)-4-{[(3,4-dichloro-5-methyl-1H-pyrrol-2-yl)carbonyl]amino}piperidin-1-yl)-1,3-thiazole-5-carboxylate]	51.9
COCCNC(=O)c1nc(N2CC[C@@H](NC(=O)c3[nH]c(C)c(Cl)c3Cl)[C@@H](n3cc(CO)nn3)C2)sc1C(=O)O [Example 115]	< 9.77
COC(=O)c1cnc(N2CC[C@@H](NC(=O)c3[nH]c(C)c(Cl)c3Cl)[C@@H](n3cc(Cl)nn3)C2)s1 [Example 71, Methyl 2-[(3S,4R)-3-(4-chloro-1H-1,2,3-triazol-1-yl)-4-[(3,4-dichloro-5-methyl-1H-pyrrole-2-carbonyl)amino]-1-piperidinyl]-1,3-thiazole-5-carboxylate]	40
Cc1[nH]c(C(=O)N[C@H]2CCN(c3ncc(C(=O)O)s3)C[C@H]2n2cncn2)c(Cl)c1Cl (racemic) [Example 43, cis(±)2-[4-{[(3,4-Dichloro-5-methyl-1H-pyrrol-2-yl)carbonyl]amino}-3-(1H-1,2,4-triazol-1-yl)piperidin-1-yl]-1,3-thiazole-5-carboxylic acid]	< 9.77
COCCNC(=O)c1nc(N2CC[C@@H](NC(=O)c3[nH]c(C)c(Cl)c3Cl)[C@@H](N=[N+]=[N-])C2)sc1C(=O)O [Example 103]	< 9.77
CCOC(=O)c1cccc2nc(N3CC[C@H](NC(=O)c4[nH]c(C)c(Cl)c4Cl)[C@H](n4ccnc4)C3)sc12 (racemic) [Example 41, cis(±)Ethyl 2-[4-{[(3,4-dichloro-5-methyl-1H-pyrrol-2-yl)carbonyl]amino}-3-(1H-imidazol-1-yl)piperidin-1-yl]-1,3-benzothiazole-7-carboxy late]	53.4
COCCn1ccnc1-c1nc(N2CCC(NC(=O)c3[nH]c(C)c(Cl)c3Cl)/C(=N/OC)C2)sc1C(=O)O (centres unmarked) [Example 27, 2-[(3E)-4-{[(3,4-Dichloro-5-methyl-1H-pyrrol-2-yl)carbonyl]amino}-3-(methoxyimino)piperidin-1-yl]-4-[1-(2-methoxyethyl)-1H-imidazol-2-yl]-1,3-thiazole-5-carboxylic acid]	< 63.5
CCOC(=O)c1sc(N2CC[C@H](NC(=O)c3[nH]c(C)c(Cl)c3Cl)[C@H](n3cncn3)C2)nc1C(=O)O (racemic) [Example 49, cis(±)2-[4-{[(3,4-Dichloro-5-methyl-1H-pyrrol-2-yl)carbonyl]amino}-3-(1H-1,2,4-triazol-1-yl)piperidin-1-yl]-5-(ethoxycarbonyl)-1,3-thiazole-4-carboxylic acid]	< 9.77
COCCNC(=O)c1nc(N2CCC(NC(=O)c3[nH]c(C)c(Cl)c3Cl)/C(=N/OC)C2)sc1C(=O)O (centres unmarked) [Example 23, 2-[(3E)-4-{[(3,4-Dichloro-5-methyl-1H-pyrrol-2-yl)carbonyl]amino}-3-(methoxyimino)piperidin-1-yl]-4-{[(2-methoxyethyl)amino]carbonyl}-1,3-thiazole-5-carboxylic acid]	< 9.77
Cc1[nH]c(C(=O)NC2CCN(c3ncc(C(=O)O)s3)CC23OCC2(CC2)CO3)c(Cl)c1Cl (centres unmarked) [Example 55, 2-(11-{[(3,4-Dichloro-5-methyl-1H-pyrrol-2-yl)carbonyl]amino}-5,12-dioxa-8-azadispiro[2.2.5.2]tridec-8-yl)-1,3-thiazole-5-carboxylic acid]	< 9.77
CCOC(=O)c1sc(N2CCC(NC(=O)c3[nH]c(C)c(Cl)c3Cl)C3(C2)OCCCO3)nc1C(=O)NCCOC (centres unmarked) [Example 7, Ethyl 2-(11-{[(3,4-dichloro-5-methyl-1H-pyrrol-2-yl)carbonyl]amino}-1,5-dioxa-8-azaspiro[5.5]undec-8-yl)-4-{[(2-methoxyethyl)amino]carbonyl}-1,3-thiazole-5-carboxylate]	18.5
CO/N=C1\CN(c2nc(-c3ncnn3C)c(C(=O)O)s2)CCC1NC(=O)c1[nH]c(C)c(Cl)c1Cl (centres unmarked) [Example 25, 2-[(3E)-4-{[(3,4-Dichloro-5-methyl-1H-pyrrol-2-yl)carbonyl]amino}-3-(methoxyimino)piperidin-1-yl]-4-(1-methyl-1H-1,2,4-triazol-5-yl)-1,3-thiazole-5-carboxylic acid]	< 9.77
CNC(=O)c1nc(N2CCC(NC(=O)c3[nH]c(C)c(Cl)c3Cl)/C(=N/OC)C2)sc1C(=O)OC (centres unmarked) [Example 31, Methyl 2-[(3E)-4-{[(3,4-dichloro-5-methyl-1H-pyrrol-2-yl)carbonyl]amino}-3-(methoxyimino)piperidin-1-yl]-4-[(methylamino)carbonyl]-1,3-thiazole-5-carboxylate]	49.4
COC(=O)c1cnc(N2CC[C@H](NC(=O)c3[nH]c(C)c(Cl)c3Cl)[C@H](n3cc(C)nn3)C2)s1 (racemic) [Example 121, cis(±)Methyl 2-[4-{[(3,4-dichloro-5-methyl-1H-pyrrol-2-yl)carbonyl]amino}-3-(4-methyl-1H-1,2,3-triazol-1-yl)piperidin-1-yl]-1,3-thiazole-5-carboxylate]	36.9
Cc1[nH]c(C(=O)N[C@H]2CCN(c3nc4cccc(C(=O)O)c4s3)C[C@H]2n2ccnc2)c(Cl)c1Cl (racemic) [Example 44, cis(±)2-[4-{[(3,4-Dichloro-5-methyl-1H-pyrrol-2-yl)carbonyl]amino}-3-(1H-imidazol-1-yl)piperidin-1-yl]-1,3-benzothiazole-7-carboxylic acid]	< 9.77
CCOC(=O)c1cccc2nc(N3CC[C@@H](NC(=O)c4[nH]c(C)c(Cl)c4Cl)[C@@H](n4ccnn4)C3)sc12 [Example 123, Ethyl 2-[(3S,4R)-4-{[(3,4-dichloro-5-methyl-1H-pyrrol-2-yl)carbonyl]amino}-3-(1H-1,2,3-triazol-1-yl)piperidin-1-yl]-1,3-benzothiazole-7-carboxy late]	218
COCCn1ccnc1-c1nc(N2CCC(NC(=O)c3[nH]c(C)c(Cl)c3Cl)/C(=N/OC)C2)sc1C(=O)OC (centres unmarked) [Example 36, Methyl 2-[(3E)-4-{[(3,4-dichloro-5-methyl-1H-pyrrol-2-yl)carbonyl]amino}-3-(methoxyimino)piperidin-1-yl]-4-[1-(2-methoxyethyl)-1H-imidazol-2-yl]-1,3-thiazole-5-carboxylate]	75.5
Cc1[nH]c(C(=O)NC2CCN(c3ncc(C(=O)O)s3)CC23OCC(C)(C)CO3)c(Cl)c1Cl (centres unmarked) [Example 57, 2-(11-{[(3,4-Dichloro-5-methyl-1H-pyrrol-2-yl)carbonyl]amino}-3,3-dimethyl-1,5-dioxa-8-azaspiro[5.5]undec-8-yl)-1,3-thiazole-5-carboxylic acid]	< 9.77
CONC(=O)c1cccc2nc(N3CC[C@@H](NC(=O)c4[nH]c(C)c(Cl)c4Cl)[C@@H](n4ccnn4)C3)sc12 [Example 125, 2-[(3S,4R)-4-{[(3,4-Dichloro-5-methyl-1H-pyrrol-2-yl)carbonyl]amino}-3-(1H-1,2,3-triazol-1-yl)piperidin-1-yl]-N-methoxy-1,3-benzothiazole-7-carboxamide]	< 9.77
CNC(=O)c1nc(N2CCC(NC(=O)c3[nH]c(C)c(Cl)c3Cl)C3(C2)OCCCO3)sc1C(=O)OC(C)C (centres unmarked) [Example 8, Isopropyl 2-(11-{[(3,4-dichloro-5-methyl-1H-pyrrol-2-yl)carbonyl]amino}-1,5-dioxa-8-azaspiro[5.5]undec-8-yl)-4-[(methylamino)carbonyl]-1,3-thiazole-5-carboxylate]	73.6
COC(=O)c1cnc(N2CCC(NC(=O)c3[nH]c(C)c(Cl)c3Cl)C3(C2)OCCCO3)s1 (centres unmarked) [Example 6, Methyl 2-(11-{[(3,4-dichloro-5-methyl-1H-pyrrol-2-yl)carbonyl]amino}-1,5-dioxa-8-azaspiro[5.5]undec-8-yl)-1,3-thiazole-5-carboxylate]	79.1
Cc1[nH]c(C(=O)N[C@@H]2CCN(c3ncc(C(=O)O)s3)C[C@@H]2n2cc(Cl)nn2)c(Cl)c1Cl [Example 107]	< 9.77
CNC(=O)c1nc(N2CCC(NC(=O)c3[nH]c(C)c(Cl)c3Cl)C3(C2)OCCO3)sc1C(=O)OC(C)C (centres unmarked) [Example 3, Isopropyl 2-(10-{[(3,4-dichloro-5-methyl-1H-pyrrol-2-yl)carbonyl]amino}-1,4-dioxa-7-azaspiro[4.5]dec-7-yl)-4-[(methylamino)carbonyl]-1,3-thiazole-5-carboxylate]	270
COCCNC(=O)c1nc(N2CCC(NC(=O)c3[nH]c(C)c(Cl)c3Cl)C3(C2)OCCO3)sc1C(=O)O (centres unmarked) [Example 14, 2-(10-{[(3,4-Dichloro-5-methyl-1H-pyrrol-2-yl)carbonyl]amino}-1,4-dioxa-7-azaspiro[4.5]dec-7-yl)-4-{[(2-methoxyethyl)amino]carbonyl}-1,3-thiazole-5-carboxylic acid]	< 9.77
Cc1[nH]c(C(=O)N[C@@H]2CCN(c3ncc(C(=O)O)s3)C[C@@H]2n2ccnn2)c(Cl)c1Cl [Example 101, 2-[(3S,4R)-4-{[(3,4-Dichloro-5-methyl-1H-pyrrol-2-yl)carbonyl]amino}-3-(1H-1,2,3-triazol-1-yl)piperidin-1-yl]-1,3-thiazole-5-carboxylic acid]	< 9.77
COC(=O)c1cnc(N2CC[C@H](NC(=O)c3[nH]c(C)c(Cl)c3Cl)[C@H](n3ccnc3)C2)s1 (racemic) [Example 38, cis(±)Methyl 2-[4-{[(3,4-dichloro-5-methyl-1H-pyrrol-2-yl)carbonyl]amino}-3-(1H-imidazol-1-yl)piperidin-1-yl]-1,3-thiazole-5-carboxylate]	90.9
